This is an account of results in the SangsterLogP compilation.

As usually defined, the logP is a log measure of how a compound divides between an organic and an aqueous phase. Read a low logP as lower lipophilicity.

Consider `Nc1cc(NC2CCCCC2)nc(N)[n+]1[O-]`, for which the lipophilicity (logP) is 1.62.

In turn, `CNc1cc(N)[n+]([O-])c(N)n1` gave a logP of -0.49. In the case of `CCCCCCCCCCNc1cc(N)[n+]([O-])c(N)n1`, the logP is 4.08.

As for `CN(C)c1cc(N)[n+]([O-])c(N)n1`, the logP turned out to be 0.16. For `CCN(CC)c1cc(N)[n+]([O-])c(N)n1`, the logP turned out to be 1.16. In turn, `CCCCN(CCCC)c1cc(N)[n+]([O-])c(N)n1` gave a logP of 3.19. `CCCCNc1cc(N)[n+]([O-])c(N)n1` yielded a logP of 1.02. The value for `CCCN(CCC)c1cc(N)[n+]([O-])c(N)n1` was 2.16; that for `Nc1cc(N(C2CCCCC2)C2CCCCC2)nc(N)[n+]1[O-]` was 3.89; that for `Nc1cc(N2CCOCC2)nc(N)[n+]1[O-]` was 0.36. For the molecule `N=c1nc(N)c(N2CCCC2)cn1O`, the logP worked out at 0.84. In the case of `C=CCN(CC=C)c1cc(N)[n+]([O-])c(N)n1`, the logP worked out at 1.6. The value for `CCNc1cc(N)[n+]([O-])c(N)n1` was -0.04.
